Patent US20120107323A1, “KINASE PROTEIN BINDING INHIBITORS” (University of Florida, priority 2009, published 2012)

Legend:
GST-FAK-NT2 and IGF-1Rβ = target: T1, GST-FAK-NT2 and IGF-1Rβ (Homo sapiens, UniProt Q05397); assay: Pull-down assay with purified GST-FAK-NT2 and IGF-1Rβ; conditions: average IC50, pulldown; read-out: IC50, decrease in binding between purified GST-FAK-NT2 and IGF-1Rβ
T1 construct: host or cells: E. coli BL21 (DE3) for GST-FAK-NT2
Text: Computational Docking The crystal structures of the N-terminal domain of FAK (PDB code 2AL6) (22) and the kinase domain of IGF-1R(PDB 1P40A) (23) were utilized for in silico molecular modeling of their interaction as previously described. The three-dimensional coordinates of compound NSC344553 (INT2-31), obtained from the database of the National Cancer Institute, Developmental Therapeutics Program (NCI/DTP), were docked onto the predicted interface of the amino-terminus of FAK (amino acids 127-243) with the intracytoplasmic portion of IGF-1R (21). […] 100 orientations were created for NSC344553 in the target site and were scored using the computer program grid-based scoring function. […] The intermolecular energies for all configurations of NSC 344553 in binding to FAK-NT2 were calculated as the sum of electrostatic and van der Waals energies. These energy terms were evaluated as correlation functions, which were computed efficiently with Fast Fourier Transforms. […] Bound proteins were boiled in 6× Laemmli buffer and analyzed by SDS-PAGE and Western blotting. […] The intensity of the bands in the western blots was measured with scion image analysis software program. […]

MCF10A cells = assay: Cell viability (MTT), MCF10A; assay type: cell-based; conditions: Homo sapiens, MCF-10A, 72 hours, read-out: IC50 of INT2-31, cell viability
Experimental: Cell viability (MTT) and CFSE Proliferation assay: Cells were plated in 96-well plates and let adhere overnight. After cell treatment, cell viability was measured by 3-(4,5-dimethylthiazol-2-yl)-2,5-diphenyl tetrazolium bromide (MTT) assay (CellTiter 96® Aqueous, Promega, Madison, Wis.).
Cell viability and detachment assays: After cells were treated with siRNA transfection, cell viability was measured by 3-(4,5-dimethylthiazol2-yl)-2,5-diphenyl tetrazolium bromide (MTT) assay (CellTiter 96® AQueous, Promega, Madison, Wis.). Briefly, 20 μl of the tetrazolium compound was added to each well. The cells were then incubated at 37° C. for 1 h. The plate was read at 490 nm with a plate reader to determine the viability. In detachment assays, detached and attached cells were harvested separately and counted in a hemocytometer. The percentage of detachment was calculated by dividing the number of detached cells by the total number of cells. Apoptosis assays: After treatment, attached and detached cells were collected, counted and prepared for terminal uridine deoxynucleotidyl transferase (TUNEL) assay by utilizing an APO-BRDU kit (BD Pharmingen, San Diego, Calif.) according to the manufacturer's instructions. Stained cells were analyzed with a fluorescence-activated cell sorting-Calibur flow cytometer (BD Biosciences). […] Apoptotic cells were also analyzed by Hoechst staining. […]

T1 sequence (Q05397 127-243): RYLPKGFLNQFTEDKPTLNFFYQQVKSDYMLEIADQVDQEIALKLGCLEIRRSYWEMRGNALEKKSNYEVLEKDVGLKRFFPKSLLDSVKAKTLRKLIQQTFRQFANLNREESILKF

CSc1ncnc2c1ccn2C1O[C@H](COP(=O)(O)O)[C@@H](O)[C@H]1O (stereo partly drawn) [INT2-31, 4-(Methylthio)-7-(5-O-phosphono-D-ribofuranosyl)-{7H-Pyrrolo[2,3-d]pyrimidine}]
IC50 (GST-FAK-NT2 and IGF-1Rβ): 3.96 µM | IC50 (MCF10A cells): 100 µM
